In PubChem BioAssay AID248 (DTP/NCI, 2004):
Values joined by “and” are separate entries in the source; they are usually repeats but may differ in a detail not shown here. Equal entries are not always repeated. Toxic doses and inconclusive results are not listed.

Tested on: L1210 leukemia ip in BDF1 mice, survival T/C
Experiment: NCI In Vivo Anticancer Drug Screen. Data for tumor model L1210 Leukemia (intraperitoneal) in B6D2F1 (BDF1) mice
Details: endpoint: mean survival time, higher = longer survival
How it was run: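 Mice bearing the transplanted tumor received compound or vehicle. Survival of the treated group was divided by that of the vehicle-treated control group to give the ratio.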

In the case of `O=C(Nc1ccc(C2=NCCN2)cc1)c1ccc(C(=O)Nc2ccc(C3=NCCN3)cc2)c(Cl)c1`, the T/C (dose: 1.8 mg/kg/injection, schedule: Q01DX009 (ip), vehicle: Klucel (hydroxypropylcellulose) (HPC)) is reported as 100 % of control and 105 % of control, the T/C (dose: 2.0 mg/kg/injection, schedule: Q01DX010 (ip), vehicle: other) is reported as 94 % of control and 101 % of control and the T/C (dose: 2.0 mg/kg/injection, schedule: Q01DX Z (ip), vehicle: saline) is reported as 103 % of control. The T/C (dose: 2.0 mg/kg/injection, schedule: Q01DX Z (sc), vehicle: carboxymethylcellulose (CMC)) was 110 % of control, the T/C (dose: 2.5 mg/kg/injection, schedule: Q04DX002 (ip), vehicle: Klucel (hydroxypropylcellulose) (HPC)) was 95 % of control and the T/C (dose: 3.0 mg/kg/injection, schedule: Q03DX Z (ip), vehicle: saline) was 114 % of control. For the same molecule, the T/C (dose: 3.5 mg/kg/injection, schedule: Q01DX009 (ip), vehicle: Klucel (hydroxypropylcellulose) (HPC)) was 107 % of control and 115 % of control, the T/C (dose: 4.0 mg/kg/injection, schedule: Q01DX010 (ip), vehicle: other) was 107 % of control and 117 % of control and the T/C (dose: 4.0 mg/kg/injection, schedule: Q01DX Z (sc), vehicle: carboxymethylcellulose (CMC)) was 110 % of control. For the same molecule, the T/C (dose: 5.0 mg/kg/injection, schedule: Q04DX002 (ip), vehicle: Klucel (hydroxypropylcellulose) (HPC)) was 95 % of control, the T/C (dose: 6.0 mg/kg/injection, schedule: Q03DX Z (ip), vehicle: saline) was 118 % of control and the T/C (dose: 6.7 mg/kg/injection, schedule: Q01DX010 (ip), vehicle: other) was 124 % of control. The T/C (dose: 6.7 mg/kg/injection, schedule: Q01DX015 (ip), vehicle: carboxymethylcellulose (CMC)) was 116 % of control, the T/C (dose: 7.8 mg/kg/injection, schedule: Q02DX010 (ip), vehicle: carboxymethylcellulose (CMC)) was 117 % of control and the T/C (dose: 8.0 mg/kg/injection, schedule: Q01DX Z (ip), vehicle: saline) was 188 % of control. The T/C (dose: 10.0 mg/kg/injection, schedule: Q01DX015 (ip), vehicle: carboxymethylcellulose (CMC)) was 119 % of control, the T/C (dose: 11.0 mg/kg/injection, schedule: Q02DX010 (ip), vehicle: carboxymethylcellulose (CMC)) was 181 % of control and the T/C (dose: 12.5 mg/kg/injection, schedule: Q02DX004 (im), vehicle: olive oil, sesame oil, peanut oil) was 116 % of control and 119 % of control. The T/C (dose: 13.0 mg/kg/injection, schedule: Q## X004 (ip), vehicle: carboxymethylcellulose (CMC)) was 105 % of control and 106 % of control, the T/C (dose: 15.0 mg/kg/injection, schedule: Q01DX010 (ip), vehicle: other) was 166 % of control and the T/C (dose: 15.0 mg/kg/injection, schedule: Q01DX015 (ip), vehicle: carboxymethylcellulose (CMC)) was 169 % of control and 171 % of control. The T/C (dose: 16.0 mg/kg/injection, schedule: Q01DX010 (ip), vehicle: water) was 156 % of control, the T/C (dose: 16.0 mg/kg/injection, schedule: Q01DX Z (ip), vehicle: saline) was 173 % of control and the T/C (dose: 17.4 mg/kg/injection, schedule: Q02DX008 (ip), vehicle: carboxymethylcellulose (CMC)) was 121 % of control. For the same molecule, the T/C (dose: 20.0 mg/kg/injection, schedule: Q01DX001 (ip), vehicle: saline) was 114 % of control, the T/C (dose: 20.0 mg/kg/injection, schedule: Q## X004 (ip), vehicle: carboxymethylcellulose (CMC)) was 103 % of control and 114 % of control and the T/C (dose: 22.5 mg/kg/injection, schedule: Q01DX010 (ip), vehicle: other) was 178 % of control. The T/C (dose: 24.0 mg/kg/injection, schedule: Q02DX010 (ip), vehicle: carboxymethylcellulose (CMC)) was 168 % of control, the T/C (dose: 25.0 mg/kg/injection, schedule: Q01DX001 (im), vehicle: steriod suspending solution) was 103 % of control and the T/C (dose: 26.0 mg/kg/injection, schedule: Q02DX008 (ip), vehicle: carboxymethylcellulose (CMC)) was 168 % of control. The T/C (dose: 26.0 mg/kg/injection, schedule: Q02DX010 (ip), vehicle: carboxymethylcellulose (CMC)) was 169 % of control and 182 % of control, the T/C (dose: 28.0 mg/kg/injection, schedule: Q07DX Z (ip), vehicle: saline) was 121 % of control and the T/C (dose: 29.0 mg/kg/injection, schedule: Q01DX001 (ip), vehicle: carboxymethylcellulose (CMC)) was 122 % of control. The T/C (dose: 29.0 mg/kg/injection, schedule: Q01DX001 (ip), vehicle: other) was 109 % of control, the T/C (dose: 30.0 mg/kg/injection, schedule: Q01DX001 (ip), vehicle: carboxymethylcellulose (CMC)) was 116 % of control and 118 % of control and the T/C (dose: 30.0 mg/kg/injection, schedule: Q## X004 (ip), vehicle: carboxymethylcellulose (CMC)) was 113 % of control and 115 % of control. The T/C (dose: 32.0 mg/kg/injection, schedule: Q01DX Z (sc), vehicle: carboxymethylcellulose (CMC)) was 185 % of control, the T/C (dose: 33.7 mg/kg/injection, schedule: Q01DX010 (ip), vehicle: other) was 167 % of control and the T/C (dose: 39.0 mg/kg/injection, schedule: Q01DX015 (ip), vehicle: carboxymethylcellulose (CMC)) was 119 % of control. For the same molecule, the T/C (dose: 39.0 mg/kg/injection, schedule: Q02DX008 (ip), vehicle: carboxymethylcellulose (CMC)) was 184 % of control and 192 % of control, the T/C (dose: 39.0 mg/kg/injection, schedule: Q02DX010 (ip), vehicle: other) was 167 % of control and the T/C (dose: 40.0 mg/kg/injection, schedule: Q01DX001 (ip), vehicle: saline) was 106 % of control. For the same molecule, the T/C (dose: 42.0 mg/kg/injection, schedule: Q01DX001 (ip), vehicle: carboxymethylcellulose (CMC)) was 122 % of control, the T/C (dose: 42.0 mg/kg/injection, schedule: Q01DX001 (ip), vehicle: other) was 117 % of control and the T/C (dose: 44.0 mg/kg/injection, schedule: Q01DX001 (ip), vehicle: carboxymethylcellulose (CMC)) was 113 % of control. The T/C (dose: 48.0 mg/kg/injection, schedule: Q01DX001 (ip), vehicle: carboxymethylcellulose (CMC)) was 113 % of control, the T/C (dose: 48.0 mg/kg/injection, schedule: Q01DX010 (ip), vehicle: water) was 157 % of control and the T/C (dose: 48.4 mg/kg/injection, schedule: Q01DX001 (ip), vehicle: carboxymethylcellulose (CMC)) was 104 % of control. For the same molecule, the T/C (dose: 50.0 mg/kg/injection, schedule: Q01DX010 (sc), vehicle: olive oil, sesame oil, peanut oil) was 123 % of control, the T/C (dose: 50.0 mg/kg/injection, schedule: Q01DX015 (ip), vehicle: carboxymethylcellulose (CMC)) was 100 % of control and 124 % of control and the T/C (dose: 50.0 mg/kg/injection, schedule: Q02DX004 (im), vehicle: olive oil, sesame oil, peanut oil) was 156 % of control. For the same molecule, the T/C (dose: 53.6 mg/kg/injection, schedule: Q## X032 (ip), vehicle: carboxymethylcellulose (CMC)) was 162 % of control, the T/C (dose: 54.0 mg/kg/injection, schedule: Q02DX010 (ip), vehicle: carboxymethylcellulose (CMC)) was 181 % of control and the T/C (dose: 54.0 mg/kg/injection, schedule: Q02DX010 (ip), vehicle: other) was 157 % of control. The T/C (dose: 54.0 mg/kg/injection, schedule: Q## X032 (ip), vehicle: carboxymethylcellulose (CMC)) was 153 % of control, the T/C (dose: 56.0 mg/kg/injection, schedule: Q01DX009 (ip), vehicle: Klucel (hydroxypropylcellulose) (HPC)) was 93 % of control and the T/C (dose: 56.0 mg/kg/injection, schedule: Q07DX Z (ip), vehicle: saline) was 123 % of control. The T/C (dose: 58.5 mg/kg/injection, schedule: Q02DX008 (ip), vehicle: carboxymethylcellulose (CMC)) was 166 % of control, the T/C (dose: 58.7 mg/kg/injection, schedule: Q02DX010 (ip), vehicle: carboxymethylcellulose (CMC)) was 162 % of control and the T/C (dose: 62.5 mg/kg/injection, schedule: Q01DX010 (oral), vehicle: other) was 113 % of control. For the same molecule, the T/C (dose: 67.0 mg/kg/injection, schedule: Q## X004 (ip), vehicle: carboxymethylcellulose (CMC)) was 157 % of control and 161 % of control, the T/C (dose: 74.0 mg/kg/injection, schedule: Q01DX001 (ip), vehicle: carboxymethylcellulose (CMC)) was 120 % of control and the T/C (dose: 80.0 mg/kg/injection, schedule: Q01DX001 (ip), vehicle: saline) was 119 % of control. For the same molecule, the T/C (dose: 80.0 mg/kg/injection, schedule: Q## X032 (ip), vehicle: carboxymethylcellulose (CMC)) was 163 % of control and 178 % of control and 188 % of control, the T/C (dose: 81.0 mg/kg/injection, schedule: Q02DX010 (ip), vehicle: carboxymethylcellulose (CMC)) was 106 % of control and the T/C (dose: 96.0 mg/kg/injection, schedule: Q01DX001 (ip), vehicle: carboxymethylcellulose (CMC)) was 156 % of control. The T/C (dose: 96.0 mg/kg/injection, schedule: Q01DX001 (ip), vehicle: other) was 162 % of control, the T/C (dose: 100.0 mg/kg/injection, schedule: Q01DX010 (sc), vehicle: olive oil, sesame oil, peanut oil) was 93 % of control and the T/C (dose: 112.0 mg/kg/injection, schedule: Q07DX Z (ip), vehicle: saline) was 121 % of control. For the same molecule, the T/C (dose: 120.0 mg/kg/injection, schedule: Q## X032 (ip), vehicle: carboxymethylcellulose (CMC)) was 180 % of control and 181 % of control, the T/C (dose: 125.0 mg/kg/injection, schedule: Q01DX010 (oral), vehicle: other) was 107 % of control and the T/C (dose: 180.0 mg/kg/injection, schedule: Q## X032 (ip), vehicle: carboxymethylcellulose (CMC)) was 94 % of control. For the same molecule, the T/C (dose: 250.0 mg/kg/injection, schedule: Q01DX010 (oral), vehicle: other) was 111 % of control.
